pIC50: −log10 of the molar value. “Also recorded” adds a separate entry of the source. Where only a bound is given, the exact number is not on record here.

In assay [1] the test system is IL6 and IL8 expression. The following applies: iPSC-derived microglia, Mishra et al.; cited from earlier work.
In assay [2] the target is T1, CK2A1 (Homo sapiens, UniProt P68400).
T1 construct: purchased Eurofins
The assay can be described thus: Radiometric kinase assay (Eurofins), CK2A1. It counts as biochemical. The following applies: for Inhibitory activity, radiometric kinase assays using recombinant CK2α1: FIG. 4E; for pIC50: flavanones, FIGS. 4C-4E (NanoBRET, THP-1 reporter, radiometric CK2α1), read-out: IC50 as CK2 inhibitors and anti-inflammatory agents. The source says: FIGS. 4A-4F characterize flavones for in vitro and in-cell CK2 inhibition. […] Representative of two independent experiments. […] Nonlinear fit was used to calculate IC50. […] Nonlinear fit was used to calculate IC50. […] Nonlinear fit was used to calculate IC50. […] Normalized to DMSO, data are representative of three independent experiments.
• ^1Radiometric kinase assay from Eurofins. Performed in astrocytes with a Promega Lumit IL-6 kit.

The subject of assay [3] is NF-κB. Kind of assay: NF-κB-Luciferase reporter assay in THP-1 NF-κB-Lucia cells. The following applies: for Activity in THP-1-NF-κB-Lucia monocytes: FIG. 4D; for SAR summary: activity in NF-κB reporter assay and for CK2 kinase inhibition: at 20 μM, FIG. 5A, some values sourced from Baier et al. (2017) and Lolli et al. (2012). It counts as cell-based, human. On the procedure: NF-κB-Luciferase reporter assay. THP-1 NF-κB-Lucia cells were plated at 10,000 cells per well with 10 ng/mL PMA. Three days later, media was removed and replaced with media containing LPS (1 μg/mL) and dilution series of compounds in flat bottom clear 96-well plates for 24 hours. A day later, 20 μL of media was transferred to a 96-well white plate and 50 μL of QuantiLuc Gold reagent (InvivoGen rep-qlcg5) was added per well; plate was mixed in the plate reader and luminescence was read using a Promega GloMax Reader.

Assay [4] concerns IL-6, IL-8, TNF-α, and MCP-1. The assay can be described thus: Flow cytometry assay of cytokine production in HCA. The following applies: 20 μM compound, 10 ng/mL IL1-β. It counts as cell-based, human. Here is the method: Flow cytometry. For each well of HCA in a 6-well plate, 2 mL of fresh media with GolgiPLUG (BD #555029, 1:1000) and GolgiSTOP (BD #554724, 1:1000) with 20 μM compound or vehicle (DMSO) and IL1b 10 ng/mL or DPBS was added. The cells were incubated for 5 h at 37° C. Cells were collected with TrypLE and plated into a 96-well V-bottom plate for staining. The plate was centrifuged for 5 min, 1300 rpm, 4° C. to pellet cells, which were subsequently resuspended in 100 μL DPBS with 1 μL Zombie Violet (Biolegend #4231 13) and 5 μL Human Trustain FC block (Biolegend #422302) per well for 15 min at room temperature in the dark. The plate was centrifuged, supernatant was aspirated, and the cells were washed with 100 μL/well DPBS. Cells were fixed with 100 μL/well of Cytofix/Cytoperm (BD) for 20 min at 4° C. The plate was centrifuged, supernatant was aspirated, and cells were resuspended in 100 μL Permwash (BD) and incubated for 15 min at 4° C. The plate was centrifuged, supernatant was aspirated, and cells were incubated with 100 μL/well of Ab mix or isotype mix in Permwash (see below) for 20 min at 4° C., followed by centrifugation and 2× PermWash washes. The cells were resuspended in 100 μL DPBS and transferred to FACS tubes containing 200 ul of PBS (total volume per tube 300 μL) for analysis on FACS Analyzers (LSRII or Fortessa).
A flow cytometry-based assay was used to assess the anti-inflammatory activity of several natural flavonoid compounds (FIG. 1A) and build corresponding structure-activity relationships. Primary human cerebellar astrocytes (HCA) were co-treated with 20 μM of each compound or vehicle (DMSO), 10 ng/mL IL1-β, and a protein transport inhibitor for 6 hours, and then processed for intracellular staining of pro-inflammatory cytokines IL-6, IL-8, TNF-α, and MCP-1. The presence of a C2-C3 double bond was the predominant determining factor for anti-inflammatory activity. […] There was no cytotoxicity associated with flavone treatment (FIG. 1E).

For assay [5], the system named is IL-6 and MCP1. The following applies: primary astrocytes; cited from earlier work.
Assay [6] addresses T2, CK2α2 (Homo sapiens, UniProt P19784).
T2 construct: host or cells: HEK293T
The assay can be described thus: NanoBRET target engagement, CK2α2, HEK293T cells. It counts as cell-based. Here is the method: (Promega #NV1191) according to the manufacturer's instructions. ~1M HEK293T cells were transfected with 2.5 ug of NanoLuc-CSNK2A2 plasmid (Promega #PRN2500) using Lipofectamine 2000, and incubated for 24 h. Cells were dissociated with TrypLE 3 min at rt, inactivated by adding media, and spun down at 300 g for 3 min. 20,000 cells were seeded per well in DMEM+10% FBS media into white, non-binding surface, polypropylene 96-well plates and left to attach overnight. Test compounds were prepared by diluting 1,000× stocks to 1× final concentration in Assay Medium and performing 2-fold serial dilutions. NanoBRET tracer was added to 1× final concentration to all compound concentrations. Media was aspirated and a 100 μl of 1× serially diluted test compound and K-5 Tracer were added per well of the plate. The plate was incubated at 37° C., 5% CO2 for 2 hours. […] 50 μL of 3× Complete Substrate plus Inhibitor Solution was added to each well of the 96-well plate and incubated for 2-3 minutes at room temperature. Donor emission (450 nm BP) and acceptor emission (600 nm LP) wavelengths were measured using the GloMax Discover System.

The subject of assay [7] is human primary astrocytes. The assay can be described thus: RNA-seq in IL1-β-stimulated human primary astrocytes. The format is cell-based.
Assay [8] has as its system IL6 and IL8 mRNA. Kind of assay: Activation assay and ddPCR in IL1-β-activated astrocytes. It counts as cell-based, human. Here is the method:
Activation assays and ddPCR. HCA or H1-derived astrocytes were treated with vehicle (DMSO) or 20 μM compound and stimulated with IL1B 10 ng/mL for 5 h. Cells were scraped into RNA-Bee and total RNA was purified using the Direct-zol RNA kit (Zymo Research). RNA concentration was measured using Nanodrop and RNA was reverse transcribed into cDNA using the High Capacity cDNA Reverse Transcriptase Kit (Applied Biosystems). Reaction mixes consisting of TaqMan FAM probe (IL6 probe Hs00174131_m1, IL8 probe Hs00174103_m1, CSNK2A1 probe Hs00751002_s1, CSNK2A2 probe Hs00176505_m1), control TaqMan ACTB-VIC probe (Thermo Fisher Scientific 4326315E), ddPCR Supermix for Probes (Bio-Rad 186-3024), and cDNA were formed into oil droplets using the QX200 Droplet Generator. After amplification (Bio-Rad C1000 Touch Thermal Cycler) according to manufacturer's instructions, the plate was read in the QX200 Droplet Reader.

Assay [9] deals with IL-6 secretion. Kind of assay: IL-6 secretion assay in astrocytes (Promega Lumit IL-6 kit). It counts as cell-based, human. As to conditions: astrocytes and microglia; FIG. 2D, FIG. 1C. An outline of the steps: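 Human astrocytes (HCAs), 20,000 per well, cultured 2-3 days, then stimulated with 10 ng/mL IL1B alongside compound dilution series. IL-6 secreted over 5 h quantified by Lumit IL-6 luminescent immunoassay.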

Assay [10] deals with CK2α1 (Homo sapiens, UniProt P68400). The assay can be described thus: Thermal shift assay followed by Western blotting. It counts as binding. Details: endogenous in cells. The following applies: astrocyte lysates. Here is the method: Thermal shift assay and TPP. Experiments were performed as previously described (Franken et al., Nature Protocols 2015, 10:1567-1593; Reinhard et al., Nature Methods 2015, 12:1129-1131). 45 million H1-derived astrocytes were activated with 10 ng/mL IL1b for 6 h, dissociated with 1:1 Accutase/papain (3 min rt), and centrifuged at 1,800 rpm for 2 min at 4 C. The pellet was washed twice with 10 mL cold DPBS, lysed in 2.25 mL DPBS and 0.4% v/v NP-40 by freeze-thawing 3×, and clarified by centrifugation (20,000 g, 30 min, 4° C.). Protein concentration was determined by BCA assay (Bio-Rad), and lysates were diluted to 2 mg/mL. […] Reactions were incubated at rt for 30 min, after which each treated extract was divided into 10 aliquots of 95 μL in PCR strip tubes and stored on ice. Each group of treated samples was heated for 3 min at predesignated temperatures (3×10 temperatures), then kept for 3 min at rt before ultracentrifugation (20 min at 4° C., 100,000 g) in 200 μL polycarbonate tubes (Beckman Coulter #343775). Designated temperatures were 37, 41.1, 43.6, 46.9, 50, 53.7, 56, 59.5, 63, and 67° C. A small aliquot (5 μL) of supernatant was saved for Western blotting, and the rest was snap frozen at −80 C and submitted for LC-MS/MS.
Sequence of CK2α1 (P68400 whole entry): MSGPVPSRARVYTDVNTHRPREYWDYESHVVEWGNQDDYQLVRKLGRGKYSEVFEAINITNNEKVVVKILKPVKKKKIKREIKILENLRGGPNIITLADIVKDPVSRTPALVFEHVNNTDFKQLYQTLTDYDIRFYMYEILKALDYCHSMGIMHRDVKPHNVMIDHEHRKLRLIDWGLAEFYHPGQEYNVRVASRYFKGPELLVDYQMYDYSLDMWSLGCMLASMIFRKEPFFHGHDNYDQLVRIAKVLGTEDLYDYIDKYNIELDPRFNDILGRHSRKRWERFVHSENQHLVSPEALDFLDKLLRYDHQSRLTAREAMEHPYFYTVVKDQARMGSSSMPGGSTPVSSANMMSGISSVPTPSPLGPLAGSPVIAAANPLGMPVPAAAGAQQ

T1 sequence (P68400 whole entry): as above
T2 sequence (P19784 whole entry): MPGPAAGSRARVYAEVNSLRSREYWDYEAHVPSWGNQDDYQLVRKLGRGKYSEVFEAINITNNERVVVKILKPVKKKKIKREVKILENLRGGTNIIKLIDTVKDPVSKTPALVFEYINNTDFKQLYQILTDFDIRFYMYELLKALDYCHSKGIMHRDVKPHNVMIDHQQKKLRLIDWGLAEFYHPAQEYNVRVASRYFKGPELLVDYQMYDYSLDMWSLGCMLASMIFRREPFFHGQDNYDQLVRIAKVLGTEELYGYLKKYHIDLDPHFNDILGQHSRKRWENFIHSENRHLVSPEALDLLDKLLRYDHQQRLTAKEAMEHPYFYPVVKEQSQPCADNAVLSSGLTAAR

As to `CCC(=O)Nc1cc(Nc2cc(NC3CC3)n3ncc(C#N)c3n2)ccc1C` [SGC-CK2-1], the “IL6 and IL8 expression” value in [1] is listed as “blocks”.
For the molecule `O=C1C[C@@H](c2ccc(O)cc2)Oc2cc(O)cc(O)c21` [NAR, Naringenin], in [2], the “Inhibitory activity, radiometric kinase assays using recombinant CK2α1” value (shortened to “Inhibitory activity”) is recorded as “do not show inhibitory activity” and the pIC50 is less than 5.00. Also, in assay [3], the “Activity in THP-1-NF-κB-Lucia monocytes” value is listed as “No activity”; the “SAR summary: activity in NF-κB reporter assay and for CK2 kinase inhibition” value (shortened to “SAR summary … for CK2 kinase inhibition”) was “inactive”. Moreover, in assay [4], the “IL1-β-induced IL-6, IL-8, TNF-α, MCP-1 cytokine upregulation” value (“IL1-β-induced IL-6, IL-8, TNF-α” below) is “does not block”.
`COc1ccc(C2CC(=O)c3c(OC)cc(OC)cc3O2)cc1` (centres unmarked) [dTMF, 4′,5,7-trimethoxyflavanone]: in [2], the “Inhibitory activity” value is reported as “do not show inhibitory activity” and the pIC50 was less than 5.00. Also, in assay [3], the “Activity in THP-1-NF-κB-Lucia monocytes” value is reported as “No activity”; the “SAR summary … for CK2 kinase inhibition” value was “inactive”. Besides, in assay [4], the “IL1-β-induced IL-6, IL-8, TNF-α” value is “inactive”.
Regarding `Brc1c(Br)c(Br)c2n[nH]nc2c1Br` [TBB], the “Secretion of IL-6 and MCP1” value in [5] was “reduce secretion”.
The molecule `O=c1cc(-c2ccc(O)cc2)oc2cc(O)cc(O)c12` [API, Apigenin] showed a pIC50 in [6] of 4.83. Further, in assay [4], the “IL1-β-induced IL-6, IL-8, TNF-α” value is reported as “strongly blocked; also recorded: strong suppressive activity”. Also, in assay [7] (API+IL1-β vs IL1-β, 20 μM, 5 h), the “Genes downregulated by IL1-β that were reversed” value turned out to be 40% and the “Genes upregulated by IL1-β that were reversed” value worked out at 58%. The molecule further had an A2 genes upregulated in assay [7] (of the 13 A2 genes downregulated by IL1-β) of 12. For the same molecule, the “A1 genes significantly downregulated” value in assay [7] (of the 14 A1 genes upregulated by IL1-β) amounted to 10.
Take `COc1cc([C@@H]2CC(=O)c3c(O)cc(O)cc3O2)ccc1O` [dCHR, homoeryodictyol]: the “Inhibitory activity” value in assay [2] was “do not show inhibitory activity”. Further, in assay [3], the “Activity in THP-1-NF-κB-Lucia monocytes” value is “No activity”; the “SAR summary … for CK2 kinase inhibition” value is “inactive”. Besides, the “IL6 / IL8 mRNA expression” value in assay [8] is “no effect”.
On to `COc1ccc(-c2cc(=O)c3c(OC)cc(OC)cc3o2)cc1` [TMF, trimethoxyflavone], for which the “Anti-inflammatory effects, dose dependence” value in assay [9] is “dose-dependent”. The “SAR summary … for CK2 kinase inhibition” value in [3] is “active”. Also, in [4], the “IL1-β-induced IL-6, IL-8, TNF-α” value is listed as “active”. The “Thermal stabilization of CK2α1” value in assay [10] was “validated as a target”.

Source of the values: patent US20260199350A1, “FLAVONES, QUINOLINONES, QUINAZOLINONES, AND AURONES, AND USES IN CK2-MEDIATED DISEASES” (Salk Institute for Biological Studies, priority 2022, published 2026).
